Patent US20150072968A1, “Treating Infections with Ceftolozane/Tazobactam in Subjects Having Impaired Renal Function” (Calixa Therapeutics, Inc., priority 2013, published 2015)
Where two headings read alike, the source gives them in different places.

Assays:
[1] = clinical; details: human, in vivo
From the text: CXA-201 plasma concentrations from 6 subjects with ESRD following a single dose without HD and a second dose with HD were used to develop a pPK model (Phoenix NLME, Pharsight).

[2] = Pharmacokinetics of ceftolozane/tazobactam in healthy volunteers; format: in vivo, human; details: single 1.5 g intravenous dose of CXA-201, healthy male adults
[3] = Phase I PK studies in subjects with varying degrees of renal function (Example 11); format: in vivo, human
From the text: Male and female subjects, aged 18 to 79 years, with varying degrees of renal function were enrolled in two, prospective, open-label, phase I studies of intravenous ceftolozane/tazobactam. A total of 36 subjects were enrolled into cohorts based on degree of renal function: normal (n=11), mild impairment (n=6), moderate impairment (n=7), severe impairment (n=6), and ESRD on HD (n=6). To ensure subjects with ESRD were receiving effective HD, a target adequacy of HD calculated from the pre- and post-blood urea nitrogen ratios (Kt/V) of at least 1.2 for a minimum of 3 months prior to enrollment was required. Renal impairment groups were classified according to the 2010 U.S.

[4] = cited from earlier work
[5] = cited from earlier work; remark: listed apart in the source
[6] = Phase 1 single dose PK of 750 mg ceftolozane/tazobactam in severe renal impairment and ESRD on hemodialysis (Example 8); format: in vivo, human; details: for AUC(0-t) / Cmax / half-life / Tmax / AUC(0-inf) / clearance / Vd: both sexes, human, plasma; for Cmax: read-out: Cmax, Mean (CV %); for half-life: read-out: t1/2, Mean (CV %) (converted); for Tmax: read-out: tmax, Median (minimum, maximum); for AUC(0-inf): read-out: AUC∞, Mean (CV %); for clearance: read-out: CL, Mean (CV %) (converted); for Vd: read-out: Vss, Mean (CV %)
Protocol: This was a Phase 1, multicenter, prospective, open-label study of 750 mg ceftolozane/tazobactam (as CXA-201) administered IV in male and female adult subjects with severe renal impairment (estimated CLCR<30 mL/min) and subjects with end-stage renal disease (ESRD) on hemodialysis (HD). The primary objective of the study was to determine the PK profile of ceftolozane/tazobactam in subjects with severe renal impairment and subjects with ESRD on HD and to determine the effect of HD on the clearance of ceftolozane/tazobactam.
Subjects with severe renal impairment received a single IV 1-hour infusion of 750 mg ceftolozane/tazobactam on Day 1. […] Subjects in this cohort received an IV dose of 750 mg ceftolozane/tazobactam as a 1 hour infusion immediately after their first HD session on Day 1 (postdialysis, approximately 72 hours prior to the next HD session) and a second dose of ceftolozane/tazobactam approximately 2 hours before their second HD session on Day 4 of the study. Infusion of ceftolozane/tazobactam was completed approximately 1 hour before the start of HD.
Subjects in both cohorts had urine (if not anuric) and plasma samples collected for determination of levels of ceftolozane, tazobactam and the M1 metabolite of tazobactam; subjects in the ESRD on HD cohort also had dialysate fluid samples collected for PK assessment. Plasma, urine, and dialysate levels of ceftolozane, tazobactam, and its metabolite M1 collected over a prespecified interval were determined by LC/MS/MS assay.
All subjects underwent hemodialysis for 3 to 4 hours using a high-flux membrane (either 1.4, 1.8, or 1.9 m^2) on Days 1, 4, and 6 as scheduled. Average blood flow rate was 264 to 600 mL/min and average dialysis flow rate was either 600 or 800 mL/min for all subjects with ESRD.

[7] = Population pharmacokinetic analysis of 10 clinical studies (Example 7); format: in vivo, human
From the text: Base model development. […] Intrinsic covariates analyzed included body weight, age, gender, ethnicity, and baseline calculated CrCL). The CrCL was estimated using the Cockcroft-Gault formula: […] […] Final population PK model: evaluation and performance. […] Smaller shrinkage ≦0.2 indicates good individual estimates.

[8] = moderate renal impairment, single 1,000 mg/500 mg dose
[9] = severe renal impairment, single 500 mg/250 mg dose
[10] = intravenous, 750 mg, ESRD on HD, second infusion Day 4, start of infusion to end of dialysis
[11] = iv, 750 mg, ESRD on HD, Day 1 IV infusion of 750 mg (non-hemodialysis phase)
[12] = iv, 750 mg, ESRD on HD, second IV infusion of 750 mg on Day 4 (during HD)
[13] = iv, 750 mg, severe renal impairment, single IV 1-hour infusion of 750 mg ceftolozane/tazobactam

## C[C@]1(Cn2ccnn2)[C@H](C(=O)O)N2C(=O)C[C@H]2S1(=O)=O [Tazobactam]
[1]
  Vd: 11 L
  clearance: 51.2 mL/min
  increase of CL by HD: 6.6 fold
  increase of Vc by HD: 1.5 fold
[2]
  excreted in the urine as unchanged parent drug: More than 80%
[3]; 1 h after the start of HD
  extraction ratio: 48%
[3]; 2 h after the start of HD
  extraction ratio: 54%
[3]; ESRD during non-HD
  median Cmax in plasma higher compared with normal renal function, dose normalized: 2.4 fold
[3]; ESRD on HD
  average extraction ratio during HD: 53%
  median RDHD (percent reduction in plasma concentration during HD): 95%
  reduction in overall exposure based on the AUC0-∞ on and off HD: ~56%
[3]; ESRD, period following HD
  plasma concentration rebound peak following HD, of the original Cmax: ~6%
[3]; at end of HD
  extraction ratio: 55%
[3]; both sexes, human, dialysate and plasma, intravenous, ESRD on HD, read-out: median dialysis clearance (CLD) (converted)
  clearance: 73.2 mL/min
[3]; both sexes, human, plasma, intravenous, ESRD on HD, read-out: t1/2 during the HD period (converted)
  half-life: 0.91 h
[3]; [8]
  increase of median AUC0-∞ compared with normal renal function: 2.2 fold
  increase of median Cmax compared with normal renal function: 1.6 fold
[3]; [9]
  increase of median AUC0-∞ compared with dose-normalized exposure in normal renal function: 3.8 fold
  increase of median Cmax compared with dose-normalized exposure in normal renal function: 1.9 fold
[4]
  protein binding: ~30%
[5]; healthy volunteers
  terminal elimination half-life (t½β): ~1 h
[5]; patients with normal renal function
  Terminal elimination half-lives (t1/2): ~1 h
[5]; remainder as inactive M1 metabolite
  excreted in the urine as the unchanged parent drug: 80%
[6]; intravenous, 750 mg, ESRD on HD, second infusion Day 4, approximately 6 hours from start of infusion to end of dialysis, read-out: AUClast, Mean (CV %)
  AUC(0-t): 28800 ng·h/mL
[6]; [10]
  Cmax: 15700 ng/mL
  half-life: 0.98 h
  Tmax: 1 h
[6]; intravenous, 750 mg, subjects with ESRD, read-out: Exposure (AUC48h) After HD (Day 1), Median (Range)
  AUC(0-t): 107000 ng·h/mL
[6]; intravenous, 750 mg, subjects with ESRD, read-out: Exposure (AUC48h) During HD (Day 3), Median (Range)
  AUC(0-t): 37100 ng·h/mL
[6]; [11]
  AUC(0-inf): 105000 ng·h/mL
  clearance: 50 mL/min
  Cmax: 21200 ng/mL
  Vd: 17 L
  half-life: 5.23 h
[6]; iv, 750 mg, ESRD on HD, Day 1 IV infusion of 750 mg (non-hemodialysis phase), through 48 hours, read-out: AUClast, Mean (CV %)
  AUC(0-t): 103000 ng·h/mL
[6]; [12]
  Cmax: 15600 ng/mL
  half-life: 5.2 h
[6]; iv, 750 mg, ESRD on HD, second IV infusion of 750 mg on Day 4 (during HD), through 44 hours, read-out: AUClast, Mean (CV %)
  AUC(0-t): 38400 ng·h/mL
[6]; iv, 750 mg, severe renal impairment, single IV 1-hour infusion of 750 mg ceftolozane/tazobactam, through 48 hours, read-out: AUClast, Mean (CV %)
  AUC(0-t): 50300 ng·h/mL
[6]; [13]
  Cmax: 15200 ng/mL
  AUC(0-inf): 52400 ng·h/mL
  clearance: 85 mL/min
  Vd: 16.5 L
  half-life: 2.6 h
[6]; ESRD on HD, second IV infusion of 750 mg on Day 4 (during HD)
  Tmax: 1 h
[6]; subjects with ESRD on HD
  removed by dialysis: ~56%
[6]; subjects with ESRD, during HD vs after HD
  AUC48h Ratio (Day 3:1), Median (Range): 0.44 (0.26 − 0.53)
[6]; subjects with ESRD, hemodialysis
  Percent Removed, Median (Range): 56 (47 − 74) Percent
[7]; final population PK model
  between-subject variability (BSV) of CL: 50.2%
  between-subject variability (BSV) of Vc: 52.5%
  inter-compartment clearance (CL2): 3.13 L/h
  volume of distribution in the peripheral compartment (Vp): 4.29 L
[7]; human, plasma, intravenous, final population PK model, read-out: CL, population estimate (converted)
  clearance: 300 mL/min
[7]; subjects without infection
  Vc, population estimate: 14.2 L
